Source: patent US20230265151A1, “GIP/GLP1 CO-AGONIST COMPOUNDS” (priority 2020, published 2023)
pKi: −log10 of the molar value. Like-named read-outs stand apart in the source and are kept apart here. *1 amine or outer side, *2 acyl side, *3 side chain or, on linkers, in order; H or OH if unused. Where a SMILES comes first, the peptide text is derived from it. Side-chain parts run from the residue outwards. [ ]: non-standard residue; d: D form. The star is where a group is joined. αMePhe(2-F) = C[C@](N)(Cc1ccccc1F)C(=O)O; γGlu = O=C(O)[C@H](CCC(=O)[*:2])N[*:1]; C14 diacid = O=C(O)CCCCCCCCCCCCC(=O)*; αMeY = C[C@](N)(Cc1ccc(O)cc1)C(=O)O; 4Pal = N[C@@H](Cc1ccncc1)C(=O)O; αMeL = CC(C)C[C@](C)(N)C(=O)O; Orn = NCCC[C@H](N)C(=O)O; AEEA = NCCOCCOCC(=O)O; Aib = CC(C)(N)C(=O)O

What was measured:
[1] = biological target: T1, human GLP-1 receptor (hGLP-1R) (Homo sapiens, UniProt P43220); experiment: [125I]-GLP-1 binding, SPA with membranes of HEK293 cells expressing hGLP-1R; conditions: for Ki: human GLP-1R, geometric mean (SEM, n), read-out: Binding Affinity Ki, nM (SEM, n) hGLP-1R
T1 construct: expressed in transfected cells; crude membranes

[2] = biological target: hGLP-1R (Homo sapiens, UniProt P43220); experiment: Functional cAMP formation (HTRF) in HEK-293 clonal cells expressing hGLP-1R, 0.1% bovine casein, without or with 1.0% human serum albumin; format: cell-based; set-up: expressed in transfected cells; conditions: for Emax: percent of maximal response to GLP-1(7-36)NH2; for EC50: cAMP, 0.1% bovine casein (no human serum albumin), geometric mean
Procedure, shortened: (§1)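 Readings of the HTRF 665/620 nm ratio, which falls as cAMP rises, were converted to nM cAMP using a standard curve after 30 min peptide exposure at 37° C.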

[3] = biological target: T2, hGIPR (Homo sapiens, UniProt P48546); experiment: Functional cAMP formation (HTRF) in HEK-293 clonal cells expressing hGIPR, 0.1% bovine casein, without or with 1.0% human serum albumin; format: cell-based; conditions: for Emax: percent of maximal response to GIP(1-42)NH2; for EC50: cAMP
T2 construct: expressed in transfected cells
T2 sequence (P48546 22-466): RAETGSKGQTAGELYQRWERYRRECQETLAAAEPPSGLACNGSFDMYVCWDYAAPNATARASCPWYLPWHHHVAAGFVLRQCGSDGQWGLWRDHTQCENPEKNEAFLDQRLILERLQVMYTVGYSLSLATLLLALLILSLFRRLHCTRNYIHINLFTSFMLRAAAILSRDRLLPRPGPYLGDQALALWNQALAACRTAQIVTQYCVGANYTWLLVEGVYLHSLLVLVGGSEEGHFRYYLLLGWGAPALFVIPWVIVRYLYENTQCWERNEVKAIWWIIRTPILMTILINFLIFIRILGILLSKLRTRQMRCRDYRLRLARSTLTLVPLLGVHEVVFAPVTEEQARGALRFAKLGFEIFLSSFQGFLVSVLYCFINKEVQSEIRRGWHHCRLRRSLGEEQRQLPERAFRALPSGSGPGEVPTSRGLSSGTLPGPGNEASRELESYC
Procedure, shortened: as §1

[4] = biological target: T3, hGCGR (Homo sapiens, UniProt P47871); experiment: Functional cAMP formation (HTRF) in HEK-293 clonal cells expressing hGCGR, 0.1% bovine casein, without or with 1.0% human serum albumin; format: cell-based; conditions: cAMP, 37° C.
T3 construct: expressed in transfected cells
Procedure, shortened: as §1

[5] = HEK293, cAMP, 37° C., 0.1% bovine casein, arithmetic mean, read-out: hGLP-1R Emax, % ± SEM
[6] = 37° C., read-out: hGLP-1R EC50, nM (SEM, n)
[7] = 37° C., 0.1% bovine casein (no human serum albumin), geometric mean, read-out: hGIPR EC50, nM (SEM, n)
[8] = 0.1% bovine casein (no human serum albumin), geometric mean, read-out: hGCGR EC50, nM (SEM, n)
[9] = 0.1% bovine casein and 1.0% human serum albumin, geometric mean (SEM, n), read-out: hGCGR EC50, nM (SEM, n)
[10] = HEK293, read-out: hGLP-1R Emax, % ± SEM, cAMP, 37° C., 0.1% bovine casein and 1.0% human serum albumin
[11] = hGLP-1R EC50, nM (SEM, n), 37° C.
[12] = HEK293, read-out: hGIPR Emax, % ± SEM, cAMP, 37° C., 0.1% bovine casein and 1.0% human serum albumin
[13] = hGIPR EC50, nM (SEM, n), 37° C., 0.1% bovine casein (no human serum albumin), geometric mean
[14] = hGCGR EC50, nM (SEM, n), 0.1% bovine casein (no human serum albumin), geometric mean
[15] = hGCGR EC50, nM (SEM, n), 0.1% bovine casein and 1.0% human serum albumin, geometric mean (SEM, n)

Sequence of hGLP-1R (P43220 24-463): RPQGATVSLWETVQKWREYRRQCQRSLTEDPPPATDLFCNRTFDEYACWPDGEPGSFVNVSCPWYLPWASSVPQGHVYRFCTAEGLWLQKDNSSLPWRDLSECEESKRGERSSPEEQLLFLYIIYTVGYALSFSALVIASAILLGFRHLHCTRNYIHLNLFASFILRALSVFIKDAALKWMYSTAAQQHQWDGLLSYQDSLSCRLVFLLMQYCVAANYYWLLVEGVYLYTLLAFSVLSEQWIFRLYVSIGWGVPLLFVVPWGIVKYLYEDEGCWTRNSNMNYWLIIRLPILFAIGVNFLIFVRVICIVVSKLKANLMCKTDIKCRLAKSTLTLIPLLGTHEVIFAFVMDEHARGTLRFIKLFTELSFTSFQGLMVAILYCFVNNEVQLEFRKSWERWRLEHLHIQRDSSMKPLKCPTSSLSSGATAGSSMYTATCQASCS
T1 sequence (P43220 24-463): as above
T3 sequence (P47871 26-477): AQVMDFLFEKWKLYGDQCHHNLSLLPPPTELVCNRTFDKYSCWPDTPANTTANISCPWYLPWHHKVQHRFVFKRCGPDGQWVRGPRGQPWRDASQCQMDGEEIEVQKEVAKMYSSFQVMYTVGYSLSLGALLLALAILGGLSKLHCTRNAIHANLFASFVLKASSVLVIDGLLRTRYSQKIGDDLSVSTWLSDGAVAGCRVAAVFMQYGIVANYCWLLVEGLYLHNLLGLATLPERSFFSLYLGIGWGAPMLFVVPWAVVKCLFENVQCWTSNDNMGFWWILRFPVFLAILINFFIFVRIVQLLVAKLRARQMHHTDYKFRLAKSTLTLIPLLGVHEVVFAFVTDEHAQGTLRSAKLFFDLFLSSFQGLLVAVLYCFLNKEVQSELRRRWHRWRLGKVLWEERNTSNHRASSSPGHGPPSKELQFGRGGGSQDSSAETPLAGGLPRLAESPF

| Compound | Ki [1] [nM] | Emax ([2]; HEK293, cAMP, 37° C., 0.1% bovine casein and 1.0% human serum albumin, read-out: hGLP-1R Emax, % ± SEM) [%] | Emax [2, 5] [%] | EC50 [2, 6] [nM] | Emax ([3]; HEK293, cAMP, 37° C., 0.1% bovine casein and 1.0% human serum albumin, read-out: hGIPR Emax, % ± SEM) [%] | Emax ([3]; HEK293, cAMP, 37° C., 0.1% bovine casein, arithmetic mean, read-out: hGIPR Emax, % ± SEM) [%] | EC50 [3, 7] [nM] | EC50 ([3]; 37° C., 0.1% bovine casein and 1.0% human serum albumin, geometric mean (SEM, n), read-out: hGIPR EC50, nM (SEM, n)) [nM] | EC50 [4, 8] [nM] | EC50 [4, 9] [nM] | pKi [1] | Emax [2, 10] [%] | EC50 [2, 11] [nM] | Emax [3, 12] [%] | Emax ([3]; HEK293, read-out: hGIPR Emax, % ± SEM, cAMP, 37° C., 0.1% bovine casein, arithmetic mean) [%] | EC50 [3, 13] [nM] | EC50 [4, 14] [nM] | EC50 [4, 15] [nM] | Emax ([2]; HEK293, read-out: hGLP-1R Emax, % ± SEM, cAMP, 37° C., 0.1% bovine casein, arithmetic mean) [%] |
| --- | --- | --- | --- | --- | --- | --- | --- | --- | --- | --- | --- | --- | --- | --- | --- | --- | --- | --- | --- |
| CC[C@H](C)[C@H](NC(=O)[C@H](CC(C)C)NC(=O)[C@](C)(Cc1ccc(O)cc1)NC(=O)[C@H](CCCCNC(=O)COCCOCCNC(=O)COCCOCCNC(=O)CC[C@H](NC(=O)CCCCCCCCCCCCC(=O)O)C(=O)O)NC(=O)[C@@H](NC(=O)[C@H](Cc1ccccc1)NC(=O)[C@H](CCCN)NC(=O)C(C)(C)NC(=O)[C@H](CCC(N)=O)NC(=O)[C@H](C)NC(=O)[C@H](CCC(N)=O)NC(=O)[C@H](CCCN)NC(=O)[C@H](CC(=O)O)NC(=O)[C@H](CC(C)C)NC(=O)[C@](C)(CC(C)C)NC(=O)CNC(=O)C(C)(C)NC(=O)[C@H](Cc1ccncc1)NC(=O)[C@H](CC(=O)O)NC(=O)[C@H](CO)NC(=O)[C@@H](NC(=O)[C@](C)(Cc1ccccc1F)NC(=O)[C@@H](NC(=O)CNC(=O)[C@H](CCC(=O)O)NC(=O)C(C)(C)NC(=O)[C@@H](N)Cc1ccc(O)cc1)[C@@H](C)O)[C@@H](C)O)[C@@H](C)CC)C(=O)N[C@@H](CCCCNC(=O)COCCOCCNC(=O)COCCOCCNC(=O)CC[C@H](NC(=O)CCCCCCCCCCCCC(=O)O)C(=O)O)C(=O)NCC(=O)NCC(=O)N1CCC[C@H]1C(=O)N[C@@H](CO)C(=O)N[C@@H](CO)C(=O)NCC(=O)N[C@@H](C)C(=O)N1CCC[C@H]1C(=O)N1CCC[C@H]1C(=O)N1CCC[C@H]1C(=O)N[C@@H](CO)C(N)=O [Example 441] (H-Y[Aib]EGT[αMePhe(2-F)]TSD[4Pal][Aib]G[αMeL]LD[Orn]QAQ[Aib][Orn]FIK([AEEA-AEEA-γGlu-C14 diacid])[αMeY]LIK([AEEA-AEEA-γGlu-C14 diacid])GGPSSGAPPPS-NH2) | 0.386 | 111 | 110 | 0.134 | 83.8 | 97.2 | 0.0174 | 1.38 | > 9950 | > 9950 |  |  |  |  |  |  |  |  |  |
| CC[C@H](C)[C@H](NC(=O)[C@H](CC(C)C)NC(=O)[C@](C)(Cc1ccc(O)cc1)NC(=O)[C@H](CCCCNC(=O)CCOCCOCCOCCOCCNC(=O)CC[C@H](NC(=O)CCCCCCCCCCCCC(=O)O)C(=O)O)NC(=O)[C@@H](NC(=O)[C@H](Cc1ccccc1)NC(=O)[C@H](CCCN)NC(=O)C(C)(C)NC(=O)[C@H](CCC(N)=O)NC(=O)[C@H](C)NC(=O)[C@H](CCC(N)=O)NC(=O)[C@H](CCCN)NC(=O)[C@H](CC(=O)O)NC(=O)[C@H](CC(C)C)NC(=O)[C@](C)(CC(C)C)NC(=O)[C@@H](NC(=O)C(C)(C)NC(=O)[C@H](Cc1ccncc1)NC(=O)[C@H](CC(=O)O)NC(=O)[C@H](CO)NC(=O)[C@@H](NC(=O)[C@](C)(Cc1ccccc1F)NC(=O)[C@@H](NC(=O)CNC(=O)[C@H](CCC(=O)O)NC(=O)C(C)(C)NC(=O)[C@@H](N)Cc1ccc(O)cc1)[C@@H](C)O)[C@@H](C)O)[C@@H](C)CC)[C@@H](C)CC)C(=O)N[C@@H](CCCCNC(=O)CCOCCOCCOCCOCCNC(=O)CC[C@H](NC(=O)CCCCCCCCCCCCC(=O)O)C(=O)O)C(=O)NCC(=O)NCC(=O)N1CCC[C@H]1C(=O)N[C@@H](CO)C(=O)N[C@@H](CO)C(=O)NCC(=O)N[C@@H](C)C(=O)N1CCC[C@H]1C(=O)N1CCC[C@H]1C(=O)N1CCC[C@H]1C(=O)N[C@@H](CO)C(N)=O [Example 457] | 0.252 |  | 119 | 0.185 |  |  | 0.0106 |  | > 9950 | > 9950 |  |  |  |  |  |  |  |  |  |
| CC[C@H](C)[C@H](NC(=O)[C@H](CC(C)C)NC(=O)[C@](C)(Cc1ccc(O)cc1)NC(=O)[C@H](CCCCNC(=O)CCOCCOCCOCCOCCNC(=O)CC[C@H](NC(=O)CCCCCCCCCOc1ccc(C(=O)O)cc1)C(=O)O)NC(=O)[C@@H](NC(=O)[C@H](Cc1ccccc1)NC(=O)[C@H](CCCN)NC(=O)C(C)(C)NC(=O)[C@H](CCC(N)=O)NC(=O)[C@H](C)NC(=O)[C@H](CCC(N)=O)NC(=O)[C@H](CCCN)NC(=O)[C@H](CC(=O)O)NC(=O)[C@H](CC(C)C)NC(=O)[C@](C)(CC(C)C)NC(=O)[C@@H](NC(=O)C(C)(C)NC(=O)[C@H](Cc1ccncc1)NC(=O)[C@H](CC(=O)O)NC(=O)[C@H](CO)NC(=O)[C@@H](NC(=O)[C@](C)(Cc1ccccc1F)NC(=O)[C@@H](NC(=O)CNC(=O)[C@H](CCC(=O)O)NC(=O)C(C)(C)NC(=O)[C@@H](N)Cc1ccc(O)cc1)[C@@H](C)O)[C@@H](C)O)[C@@H](C)CC)[C@@H](C)CC)C(=O)N[C@@H](CCCCNC(=O)CCOCCOCCOCCOCCNC(=O)CC[C@H](NC(=O)CCCCCCCCCOc1ccc(C(=O)O)cc1)C(=O)O)C(=O)NCC(=O)NCC(=O)N1CCC[C@H]1C(=O)N[C@@H](CO)C(=O)N[C@@H](CO)C(=O)NCC(=O)N[C@@H](C)C(=O)N1CCC[C@H]1C(=O)N1CCC[C@H]1C(=O)N1CCC[C@H]1C(=O)N[C@@H](CO)C(N)=O [Example 461] |  |  |  |  |  |  |  |  |  |  | 9.85 | 105 | 0.173 | 98.5 | 100 | 0.0103 | > 10100 | > 10100 |  |
| CC[C@H](C)[C@H](NC(=O)[C@H](CC(C)C)NC(=O)[C@](C)(Cc1ccc(O)cc1)NC(=O)[C@H](CCCCNC(=O)COCCOCCNC(=O)COCCOCCNC(=O)[C@H]1CC[C@H](CNC(=O)CC[C@H](NC(=O)CCCCCCCCCOc2ccc(C(=O)O)cc2)C(=O)O)CC1)NC(=O)[C@@H](NC(=O)[C@H](Cc1ccccc1)NC(=O)[C@H](CCCN)NC(=O)C(C)(C)NC(=O)[C@H](CCC(N)=O)NC(=O)[C@H](C)NC(=O)[C@H](CCC(N)=O)NC(=O)[C@H](CCCN)NC(=O)[C@H](CC(=O)O)NC(=O)[C@H](CC(C)C)NC(=O)[C@](C)(CC(C)C)NC(=O)[C@@H](NC(=O)C(C)(C)NC(=O)[C@H](Cc1ccncc1)NC(=O)[C@H](CC(=O)O)NC(=O)[C@H](CO)NC(=O)[C@@H](NC(=O)[C@](C)(Cc1ccccc1F)NC(=O)[C@@H](NC(=O)CNC(=O)[C@H](CCC(=O)O)NC(=O)C(C)(C)NC(=O)[C@@H](N)Cc1ccc(O)cc1)[C@@H](C)O)[C@@H](C)O)[C@@H](C)CC)[C@@H](C)CC)C(=O)N[C@@H](CCCCNC(=O)COCCOCCNC(=O)COCCOCCNC(=O)[C@H]1CC[C@H](CNC(=O)CC[C@H](NC(=O)CCCCCCCCCOc2ccc(C(=O)O)cc2)C(=O)O)CC1)C(=O)NCC(=O)NCC(=O)N1CCC[C@H]1C(=O)N[C@@H](CO)C(=O)N[C@@H](CO)C(=O)NCC(=O)N[C@@H](C)C(=O)N1CCC[C@H]1C(=O)N1CCC[C@H]1C(=O)N1CCC[C@H]1C(=O)N[C@@H](CO)C(N)=O [Example 471] |  |  |  |  |  |  |  |  |  |  | 9.71 | 110 | 0.143 | 90.1 |  | 0.0107 | > 9950 | > 9950 | 112 |
